The record followed here is patent publication US20260176320A1, “MODULATORS OF G-PROTEIN COUPLED RECEPTORS” (priority 2018, published 2026).

Structures are written as SMILES. Read-outs that look alike come from different tables or passages of the source. Square brackets hold non-standard residues; d marks the D form. Peptide text beside a SMILES is read from it. * marks the point of attachment. X1 = O=C(CSCC(=O)*)NCCN1C(=O)c2ccccc2C1=O; Aib = CC(C)(N)C(=O)O

Format in all cases: cell-based
The target in assay [1] is T1, GLP-1R (Homo sapiens, UniProt P43220). Nature of the assay: PathHunter β-arrestin assay. Here is the method: The effects of the chemical entities described herein on β-arrestin signaling and associated downstream processes (e.g., those delineated above) can be assessed using conventional methods, e.g., PathHunter β-arrestin Assay for determining β-arresting coupling (see Examples section). […] It has been shown that b-arrestin coupling is a key strep in receptor internalization and subsequent de-sensitization and attenuation of signaling.
T1 sequence (P43220 24-463): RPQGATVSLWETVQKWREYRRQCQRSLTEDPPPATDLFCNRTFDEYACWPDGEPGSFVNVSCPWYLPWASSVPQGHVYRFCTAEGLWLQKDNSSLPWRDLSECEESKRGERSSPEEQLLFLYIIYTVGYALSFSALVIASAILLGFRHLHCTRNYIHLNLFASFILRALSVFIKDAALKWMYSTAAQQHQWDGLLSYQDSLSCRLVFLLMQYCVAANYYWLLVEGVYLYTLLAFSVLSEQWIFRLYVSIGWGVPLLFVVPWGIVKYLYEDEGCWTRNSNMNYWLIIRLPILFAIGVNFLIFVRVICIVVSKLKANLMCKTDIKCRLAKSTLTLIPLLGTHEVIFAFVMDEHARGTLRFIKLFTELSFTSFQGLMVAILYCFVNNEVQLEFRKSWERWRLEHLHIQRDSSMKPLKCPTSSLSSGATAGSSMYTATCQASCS
5,000 cells were seeded in appropriate cell culture media per well in a low volume 384-well tissue culture plate. The assay plate was incubated with cells overnight at 37° C. and 5% CO2. The media was removed, and 5 μL of appropriate cell culture media containing 0.2% BSA was added. Agonist serial dilutions in a separate 384 well dilution plate in a 22-point series of 2× dilutions of agonist in DMSO were performed as follows. 80 μL of the highest concentration of Agonist/DMSO was added to well No. 1. 40 μL was removed from well No. 1, and added to well No. 2, followed by gentle mixing. […] This process was repeated until well No. 22. Additional serial dilutions for additional agonists were set up in a similar manner. 100 nL of each 2× agonist serial dilution was added in duplicate to the designated agonist rows of the assay plate using the Labcyte ECHO. Assay plate was incubated for 90 minutes at 37° C. and 5% CO2. A stock of Working Detection Solution in a separate 15 ml polypropylene tube was prepared by mixing 19 parts of Cell Assay Buffer, 5 parts of Substrate Reagent 1, 1 part Substrate Reagent 2. […] Plates were spun down briefly. Assay plate was incubated for 3 hour at room temperature in the dark for the immunocompetition reaction to occur. Samples were read on Tecan i-control plate reader using luminescence mode with 100 ms integration time. Data analysis was performed using GraphPad Prism.

Assay [2] has as its target T1, GLP-1R. Kind of assay: HitHunter cAMP assay (GLP-1R). The note with it: Table 3A, cAMP; for EC50: EC50 GLP-1R/nM; for Emax: read-out: (Emax) GLP-1R. The method in brief:
(§1)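 cAMP, luminescence read: agonist 22-pt 2× dilution in DMSO, duplicate, 30 min RT on 10,000 cells/well in 1×HBSS/10 mM HEPES/625 μM IBMX/0.2% BSA; anti-cAMP reagent 1 h RT dark, then O/N RT dark before read.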

Assay [3] has as its target T2, GIP-R (Homo sapiens, UniProt P48546).
T2 sequence (P48546 22-466): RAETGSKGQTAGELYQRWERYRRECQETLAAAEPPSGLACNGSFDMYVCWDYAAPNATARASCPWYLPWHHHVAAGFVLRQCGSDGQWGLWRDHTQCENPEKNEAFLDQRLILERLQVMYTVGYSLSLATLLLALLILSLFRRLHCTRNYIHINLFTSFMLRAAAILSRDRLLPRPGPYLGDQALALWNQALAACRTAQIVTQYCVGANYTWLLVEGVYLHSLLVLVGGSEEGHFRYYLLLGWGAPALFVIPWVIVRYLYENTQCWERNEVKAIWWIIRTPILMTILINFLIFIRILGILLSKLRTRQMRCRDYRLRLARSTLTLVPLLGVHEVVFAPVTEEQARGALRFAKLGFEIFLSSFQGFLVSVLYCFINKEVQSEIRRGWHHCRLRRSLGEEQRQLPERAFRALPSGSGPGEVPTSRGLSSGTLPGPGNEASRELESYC
Nature of the assay: HitHunter cAMP assay (GIP-R). The note with it: cAMP; for EC50: EC50 GIP-R/nM; for Emax: read-out: (Emax) GIP-R. The method in brief:
as §1

As to `CCCCCCCCCCCCCCCC(=O)N[C@@H](CCC(=O)NCCCC[C@H](NC(=O)[C@H](CO)NC(=O)[C@@H]1CCCN1C(=O)[C@@H]1CCCN1C(=O)[C@@H]1CCCN1C(=O)[C@H](C)NC(=O)CNC(=O)[C@H](CO)NC(=O)[C@H](CO)NC(=O)[C@@H]1CCCN1C(=O)CNC(=O)CNC(=O)[C@H](C)NC(=O)[C@H](CC(C)C)NC(=O)[C@H](CC(C)C)NC(=O)[C@H](Cc1c[nH]c2ccccc12)NC(=O)[C@H](CC(N)=O)NC(=O)[C@@H](NC(=O)[C@H](Cc1ccccc1)NC(=O)[C@H](CCC(=O)O)NC(=O)C(C)(C)NC(=O)[C@H](C)NC(=O)[C@H](C)NC(=O)[C@H](CCC(N)=O)NC(=O)[C@H](CCCCN)NC(=O)[C@H](CC(=O)O)NC(=O)[C@H](CC(C)C)NC(=O)[C@H](Cc1ccc(O)cc1)NC(=O)[C@@H](NC(=O)[C@H](CO)NC(=O)[C@H](Cc1ccc(O)cc1)NC(=O)[C@H](CC(=O)O)NC(=O)[C@H](CO)NC(=O)[C@@H](NC(=O)[C@H](Cc1ccccc1)NC(=O)[C@@H](NC(=O)CNC(=O)[C@H](CCC(=O)O)NC(=O)CSCC(=O)NCCn1cc(C)ccc1=O)[C@@H](C)O)[C@@H](C)O)[C@@H](C)CC)C(C)C)C(N)=O)C(=O)O` [Compound 238], the EC50 in assay [1] is more than 1000 nM; in assay [2], 0.1 to 1 nM; in assay [3] (Table 3A), 1 to 10 nM. Besides, the Emax in assay [2] came to 95%; in assay [3] (Table 3A), 82%.
As to `CCCCCCCCCCCCCCCC(=O)N[C@@H](CCC(=O)NCCCC[C@H](NC(=O)[C@H](CO)NC(=O)[C@@H]1CCCN1C(=O)[C@@H]1CCCN1C(=O)[C@@H]1CCCN1C(=O)[C@H](C)NC(=O)CNC(=O)[C@H](CO)NC(=O)[C@H](CO)NC(=O)[C@@H]1CCCN1C(=O)CNC(=O)CNC(=O)[C@H](C)NC(=O)[C@H](CC(C)C)NC(=O)[C@H](CC(C)C)NC(=O)[C@H](Cc1c[nH]c2ccccc12)NC(=O)[C@H](CC(N)=O)NC(=O)[C@@H](NC(=O)[C@H](Cc1ccccc1)NC(=O)[C@H](CCC(=O)O)NC(=O)C(C)(C)NC(=O)[C@H](C)NC(=O)[C@H](C)NC(=O)[C@H](CCC(N)=O)NC(=O)[C@H](CCCCN)NC(=O)[C@H](CC(=O)O)NC(=O)[C@H](CC(C)C)NC(=O)[C@H](Cc1ccc(O)cc1)NC(=O)[C@@H](NC(=O)[C@H](CO)NC(=O)[C@H](Cc1ccc(O)cc1)NC(=O)[C@H](CC(=O)O)NC(=O)[C@H](CO)NC(=O)[C@@H](NC(=O)[C@H](Cc1ccccc1)NC(=O)[C@@H](NC(=O)CNC(=O)[C@H](CCC(=O)O)NC(=O)CSCC(=O)NCCn1c(C)cccc1=O)[C@@H](C)O)[C@@H](C)O)[C@@H](C)CC)C(C)C)C(N)=O)C(=O)O` [Compound 240], the EC50 in assay [1] is more than 1000 nM; in assay [2], 0.1 to 1 nM; in assay [3] (Table 3A), 1 to 10 nM. The Emax in assay [2] was 97%; in assay [3] (Table 3A), 60%.
`CC[C@H](C)[C@H](NC(=O)[C@H](CO)NC(=O)[C@H](Cc1ccc(O)cc1)NC(=O)[C@H](CC(=O)O)NC(=O)[C@H](CO)NC(=O)[C@@H](NC(=O)[C@H](Cc1ccccc1)NC(=O)[C@@H](NC(=O)CNC(=O)[C@H](CCC(=O)O)NC(=O)CSCC(=O)NCCN1C(=O)c2ccccc2C1=O)[C@@H](C)O)[C@@H](C)O)C(=O)N[C@@H](Cc1ccc(O)cc1)C(=O)N[C@@H](CC(C)C)C(=O)N[C@@H](CC(=O)O)C(=O)N[C@@H](CCC(=O)O)C(=O)N[C@@H](CCC(N)=O)C(=O)N[C@@H](C)C(=O)N[C@@H](C)C(=O)NC(C)(C)C(=O)N[C@@H](CCC(=O)O)C(=O)N[C@@H](Cc1ccccc1)C(=O)N[C@H](C(=O)N[C@@H](CC(N)=O)C(=O)N[C@@H](Cc1c[nH]c2ccccc12)C(=O)N[C@@H](CC(C)C)C(=O)N[C@@H](CC(C)C)C(=O)N[C@@H](C)C(=O)NCC(=O)NCC(=O)N1CCC[C@H]1C(=O)N[C@@H](CO)C(=O)N[C@@H](CO)C(=O)NCC(=O)N[C@@H](C)C(=O)N1CCC[C@H]1C(=O)N1CCC[C@H]1C(=O)N1CCC[C@H]1C(=O)N[C@@H](CO)C(=O)N[C@@H](CCCCN)C(N)=O)C(C)C` [compound 150] (X1-EGTFTSDYSIYLDEQAA[Aib]EFVNWLLAGGPSSGAPPPSK-NH2): the half-maximal effective concentration (EC50) in assay [1] is more than 1000 nM. Also, in assay [3] (Table 3), the Emax is 118 to 130%.
